We go through one compound from article PMC2653224 (Journal of molecular biology, 2008).

For the test, the target named is cytochrome c (Fe^2+ cyt c) (Equus caballus, UniProt P00004). The test is described as follows: equilibrium heme Soret absorbance titration with CO at […] °C. Type of test: binding.
cytochrome c (Fe^2+ cyt c), sequence (P00004 2-105): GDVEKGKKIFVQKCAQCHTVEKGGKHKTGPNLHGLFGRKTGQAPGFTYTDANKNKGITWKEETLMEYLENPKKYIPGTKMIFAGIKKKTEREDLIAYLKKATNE

As a reminder, the Kd is the free concentration of one partner at which half of the binding sites on the other are occupied at equilibrium, for simple one-to-one binding. A high value points to weaker binding. `[C-]#[O+]` [CO]: the Kd was 14 ± 8 nM.
